Data as given in patent US8524917B2, “6-substituted indole-3-carboxylic acid amide compounds having sphingosine-1-phosphate (S1P) receptor antagonist biological activity” (Allergan, Inc., priority 2007, dated 2013).
Read-outs that look alike come from different tables or passages of the source.

Target: human S1P3 receptor (Homo sapiens (Human), UniProt Q99500)
Test: Activation or block of activation of human S1P3 receptor, Ca+2 FLIPR assay
Assay type: cell-based
Settings: for IC50: read-out: S1P3 IC50
Summary of the method: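 T24 cells stably expressing human S1P3, grown in charcoal-treated FBS, dye-loaded and read on FLIPR for calcium after ligand addition in HBSS/20 mM HEPES (1 s readings for 75 s, then every 10 s for 2.5 min). Agonist or antagonist mode; S1P positive control in 4 mg/ml fatty-acid-free BSA. IC50 by Levenberg–Marquardt regression.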

[1] = T24 cells stably expressing the human S1P3 receptor, FLIPR Ca+2 response, 0.61 nM to 10,000 nM
[2] = T24 cells stably expressing the human S1P3 receptor, value in brackets

Sequence of human S1P3 receptor (Q99500 whole entry): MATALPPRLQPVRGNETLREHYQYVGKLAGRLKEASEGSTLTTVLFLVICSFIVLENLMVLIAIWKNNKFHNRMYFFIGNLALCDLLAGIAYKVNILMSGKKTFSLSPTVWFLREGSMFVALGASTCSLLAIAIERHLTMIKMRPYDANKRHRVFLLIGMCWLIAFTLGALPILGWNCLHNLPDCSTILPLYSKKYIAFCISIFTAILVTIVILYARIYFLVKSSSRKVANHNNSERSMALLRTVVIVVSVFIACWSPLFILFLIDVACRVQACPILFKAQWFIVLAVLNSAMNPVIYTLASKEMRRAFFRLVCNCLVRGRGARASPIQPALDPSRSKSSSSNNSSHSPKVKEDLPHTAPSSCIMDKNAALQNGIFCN

Row | Compound | S1P3 (% inh) | IC50 [nM] | IC50 [1] [nM] | S1P3 (% inh) [2] [%] | Kb (T24 cells stably expressing the human S1P3 receptor, second concentration in the cell, read-out: S1P3 Kb) [nM]
1 | CC(C)c1c(C(=O)NCc2cc(F)cc(F)c2)c2ccc(NC3CCC3)cc2n1Cc1ccccc1 [Compound 194, 1-Benzyl-6-(cyclobutylamino)-N-(3,5-difluorobenzyl)-2-isopropyl-1H-indole-3-carboxamide] | 20 nM (100) % | 20 | – | – | –
2 | COc1ccc2c(C(=O)NCc3ccc(F)c(F)c3)c(C(C)C)n(Cc3ccccc3)c2c1 [Compound 7, 1-Benzyl-N-(3,4-difluorobenzyl)-2-isopropyl-6-methoxy-1H-indole-3-carboxamide] | – | – | 560 | 98 | –
3 | CC(C)c1c(C(=O)NCc2ccc(F)c(F)c2)c2ccc(C3=NCCO3)cc2n1Cc1ccccc1 [Compound 70, 1-Benzyl-N-(3,4-difluorobenzyl)-6-(4,5-dihydrooxazol-2-yl)-2-isopropyl-1H-indole-3-carboxamide] | 36 nM (100) % | 36 | – | – | –
4 | CC[C@H]1COC(c2ccc3c(C(=O)NCc4ccc(F)c(F)c4)c(C(C)C)n(Cc4ccccc4)c3c2)=N1 [Compound 75, (S)-1-Benzyl-N-(3,4-difluorobenzyl)-6-(4-ethyl-4,5-dihydrooxazol-2-yl)-2-isopropyl-1H-indole-3-carboxamide] | – | – | 17 | 97 | –
5 | CC(C)c1c(C(=O)NCc2ccc(F)c(F)c2)c2ccc(OC3CCCC3)cc2n1Cc1ccccn1 | – | – | 3 | 100 | 4
6 | CCOC(=O)c1ccc2c(C(=O)NCc3ccccc3)c(C(C)C)n(Cc3ccccc3)c2c1 | – | – | 9 | 96 | –
7 | CC(=O)c1c(C(=O)NCc2ccc(F)c(F)c2)c2ccc(OC(C)C)cc2n1Cc1ccccn1 [Compound 109, 2-Acetyl-N-(3,4-difluorobenzyl)-6-isopropoxy-1-(pyridin-2-ylmethyl)-1H-indole-3-carboxamide] | – | – | 21 | 99 | –
8 | COC[C@H]1COC(c2ccc3c(C(=O)NCc4ccc(F)c(F)c4)c(C(C)C)n(Cc4ccccc4)c3c2)=N1 [Compound 77, (S)-1-Benzyl-N-(3,4-difluorobenzyl)-2-isopropyl-6-(4-(methoxymethyl)-4,5-dihydrooxazol-2-yl)-1H-indole-3-carboxamide] | – | – | 46 | 96 | –
9 | CC(C)c1c(C(=O)NCc2ccc(F)c(F)c2)c2ccc([N+](=O)[O-])cc2n1Cc1ccccc1 [Compound 124, 1-Benzyl-N-(3,4-difluorobenzyl)-2-isopropyl-6-nitro-1H-indole-3-carboxamide] | 242 nM (90) % | 242 | – | – | –
10 | CC(C)c1c(C(=O)NCc2ccc(F)cc2)c2ccc(NC3CCC3)cc2n1Cc1ccccc1 [Compound 195, 1-Benzyl-6-(cyclobutylamino)-N-(4-fluorobenzyl)-2-isopropyl-1H-indole-3-carboxamide] | – | – | 51 | 99 | –
11 | CC(C)Oc1ccc2c(C(=O)NCc3ccc(F)c(F)c3)c(C(C)C)n(Cc3ncco3)c2c1 [Compound 213, N-(3,4-Difluorobenzyl)-6-isopropoxy-2-isopropyl-1-(oxazol-2-ylmethyl)-1H-indole-3-carboxamide] | – | – | 189 | 100 | –
12 | CC(C)c1c(C(=O)NCc2ccc(F)c(F)c2)c2ccc(-c3nnco3)cc2n1Cc1ccccc1 [Compound 89, 1-Benzyl-N-(3,4-difluorobenzyl)-2-isopropyl-6-(1,3,4-oxadiazol-2-yl)-1H-indole-3-carboxamide] | – | – | 59 | 98 | –
13 | CO/N=C/c1ccc2c(C(=O)NCc3ccc(F)c(F)c3)c(C(C)C)n(Cc3ccccc3)c2c1 | – | – | 21 | 99 | –
14 | CC(C)c1c(C(=O)NCc2ccc(F)c(F)c2)c2ccc(OC3CCCO3)cc2n1Cc1ccccn1 (stereo not shown) [drawing 164] | – | – | 9 | 100 | –
15 | [2H]C([2H])([2H])C([2H])(Oc1ccc2c(C(=O)NCc3ccc(F)c(F)c3)c(C(=C)C)n(Cc3ccccn3)c2c1)C([2H])([2H])[2H] [Compound 199, N-(3,4-Difluorobenzyl)-2-isopropenyl-6-isopropoxy-1-(pyridin-2-ylmethyl)-1H-indole-3-carboxamide-d7] | – | – | 51 | 100 | –
